One data set has as its system SMN protein. As to the kind of experiment: SMN protein assay (MSD) in SMA patient fibroblasts (GM03813). The class given is cell-based, human. As to the method:
Compounds are tested on spinal muscular atrophy (SMA) patient fibroblasts (GM03813, Coriell) at doses ranging from 2.5 μM to 0.6 nM. 7000 cells/well are seeded in 96-well plates. Compounds are incubated for 48 hours and the cells were lysed with 100 μL of lysis buffer. 20 μL of lysate is used for SMN protein measurement by Mesoscale Discovery (MSD) assay developed by PharmOptima (Michigan). A standard curve prepared with SMN protein ranging from […] is used in each MSD plate to calculate the absolute SMN protein amount in each sample.

The test system of data set [1] is MDR1-MDCK cell monolayers. Particulars: dog, MDCK-MDR1, 120 min, 5 μM, pH 7.4.
Experimental: (§1) Experimental Procedure: MDR1-MDCK cell monolayers are grown to confluence on collagen-coated, microporous membranes in 12-well assay plates. The permeability assay buffer is Hanks' balanced salt solution containing 10 mM HEPES and 15 mM glucose at a pH of 7.4. The buffer in the receiver chamber also contained 1% bovine serum albumin. The dosing solution concentration is 5 μM of test article in the assay buffer. Cell monolayers are dosed on the apical side (A-to-B) or basolateral side (B-to-A) and incubated at 37° C. with 5% CO2 in a humidified incubator. Samples are taken from the donor and receiver chambers at 120 minutes. Each determination is performed in duplicate. The flux of lucifer yellow is also measured post-experimentally for each monolayer to ensure no damage was inflicted to the cell monolayers during the flux period. All samples are assayed by LC-MS/MS using electrospray ionization.
(§2) Analytical Method: Liquid Chromatography • Column: Waters ACQUITY UPLC BEH Phenyl 30×2.1 mm, 1.7 μm • M.P. Buffer: 25 mM ammonium formate buffer, pH 3.5 • Aqueous Reservoir (A): 90% water, 10% buffer • Organic Reservoir (B): 90% acetonitrile, 10% buffer • Flow Rate: 0.7 mL/minute • Gradient Program:
(§3) • Total Run Time: 1.00 minute • Autosampler: 2 μL injection volume • Wash1: water/methanol/2-propanol:1/1/1; with 0.2% formic acid • Wash2: 0.1% formic acid in water • Brain Penetration • Potential Classification: A-B Papp≥3.0 and Efflux Ratio<3.0: High • A-B Papp≥3.0 and 10>Efflux Ratio≥3.0: Moderate • A-B Papp≥3.0 and Efflux Ratio≥10: Low • A-B Papp<3.0: Low
The test system of a further data set is MDR1. As to the kind of experiment: in vitro. Particulars: dog; for Papp A→B at 120 min, 5 μM: MDCK-MDR1, pH 7.4, MDCK-MDR1: Papp A-B (10^−6, cm/s); for Papp B→A at 120 min, 5 μM: MDCK-MDR1, pH 7.4, MDCK-MDR1: Papp B-A (10^−6, cm/s).
In another data set the test system is MDR1 (P-gp). As to the kind of experiment: MDCK-MDR1 permeability assay, blood-brain-barrier penetration potential. Particulars: dog, MDCK-MDR1, pH 7.4, MDCK-MDR1 Efflux Ratio.

18 compounds from patent US11964971B2, “Methods and compositions for modulating splicing” (Skyhawk Therapeutics, Inc., priority 2019, dated 2024) can be followed below.

A word on the EC50: it is the concentration that produces a half-maximal response. What is called Papp A→B is how fast a substance crosses the layer from the apical side. Read a low Papp A→B as poor permeation. As usually defined, the Papp B→A is how fast a substance crosses the layer from the basolateral side. One may read the efflux ratio as the permeability from basolateral to apical divided by that in the opposite direction, in the common usage.

Experimental for MDR1 (P-gp): as §1, §2, §3

Turning to `Oc1cc(-c2cn[nH]c2)ccc1-c1cnc(O[C@H]2CC3CC[C@@H](N3)[C@H]2F)cn1` (single isomer, unassigned) [Compound 1E1], in the data set on SMN protein, the concentration giving a half-maximal response (EC50) lay in the range of 501 to 10000 nM. For the same compound, in data set [1], the “MDCK-MDR1: % Recov A-B (%)” value was determined as 68% and the “MDCK-MDR1: % Recov B-A (%)” value is 82%. In the data set on MDR1, this compound had a Papp A→B at 120 min, 5 μM of 8.22 ×10⁻⁶ cm/s and a Papp B→A at 120 min, 5 μM of 33.4 ×10⁻⁶ cm/s. Moreover, the efflux ratio at 120 min, 5 μM with MDR1 (P-gp) worked out at 4.

Turning to `Oc1cc(-c2cn[nH]c2)ccc1-c1cnc(O[C@@H]2C[C@H]3CCC(N3)[C@@H]2F)cn1` (single isomer, unassigned) [Compound 1E2], the EC50 with SMN protein was in the range of 501 to 10000 nM. Further, in data set [1], the “MDCK-MDR1: % Recov A-B (%)” value is listed as 66% and the “MDCK-MDR1: % Recov B-A (%)” value turned out to be 79%. In addition, in the data set with MDR1, the apical-to-basolateral permeability (Papp A→B) at 120 min, 5 μM came to 7.49 ×10⁻⁶ cm/s and the basolateral-to-apical permeability (Papp B→A) at 120 min, 5 μM came to 40.1 ×10⁻⁶ cm/s. Also, the efflux ratio at 120 min, 5 μM with MDR1 (P-gp) is 5.

In the data set on SMN protein, `CN(c1cnc(-c2ccc(-c3cnn(C)c3)cc2O)cn1)[C@@H]1[C@H](F)[C@H]2CCC(N2)[C@@H]1F` (single isomer, unassigned) [Compound 4E2] returned a 50% effective concentration (EC50) of 16 to 50 nM. In addition, in data set [1], the “MDCK-MDR1: % Recov A-B (%)” value was 44% and the “MDCK-MDR1: % Recov B-A (%)” value amounted to 63%. Also, in the data set with MDR1, the apical-to-basolateral permeability (Papp A→B) at 120 min, 5 μM was 4.94 ×10⁻⁶ cm/s and the Papp B→A at 120 min, 5 μM is 27.9 ×10⁻⁶ cm/s. The efflux ratio at 120 min, 5 μM in the data set on MDR1 (P-gp) came out at 6.

`CN(c1cnc(-c2ccc(-c3cn[nH]c3)cc2O)cn1)[C@@H]1C[C@H]2CCCC(N2)[C@@H]1F` (single isomer, unassigned) [Compound 6E1]: in the data set on SMN protein, the EC50 lay within 501 to 10000 nM. Besides, in data set [1], the “MDCK-MDR1: % Recov A-B (%)” value came out at 76% and the “MDCK-MDR1: % Recov B-A (%)” value is 69%. In the data set with MDR1, the Papp A→B at 120 min, 5 μM is 4.58 ×10⁻⁶ cm/s and the Papp B→A at 120 min, 5 μM came out at 42.3 ×10⁻⁶ cm/s. Further, the efflux ratio at 120 min, 5 μM in the data set with MDR1 (P-gp) amounted to 9.

`CN(c1cnc(-c2ccc(-c3cn[nH]c3)cc2O)cn1)[C@@H]1C[C@H]2CCC(N2)[C@@H]1F` (single isomer, unassigned) [Compound 8E1] displayed an EC50 in the data set with SMN protein of 501 to 10000 nM. For the same compound, in data set [1], the “MDCK-MDR1: % Recov A-B (%)” value is 72% and the “MDCK-MDR1: % Recov B-A (%)” value was determined as 71%. In the data set on MDR1, this compound had a Papp A→B at 120 min, 5 μM of 3.58 ×10⁻⁶ cm/s and an apparent permeability from basolateral to apical (Papp B→A) at 120 min, 5 μM of 33.3 ×10⁻⁶ cm/s. Moreover, in the data set on MDR1 (P-gp), the efflux ratio at 120 min, 5 μM came to 9.

Consider `CN(c1cnc(-c2ccc(-c3cn[nH]c3)cc2O)cn1)[C@H]1CC2N[C@@H](C1)CC2(F)F` (single isomer, unassigned) [Compound 9E1], for which, in the data set on SMN protein, the EC50 fell in the range of 501 to 10000 nM. Also, in data set [1], the “MDCK-MDR1: % Recov A-B (%)” value came to 60% and the “MDCK-MDR1: % Recov B-A (%)” value was 77%. In the data set on MDR1, the Papp A→B at 120 min, 5 μM is 17.9 ×10⁻⁶ cm/s and the basolateral-to-apical permeability (Papp B→A) at 120 min, 5 μM came to 51.6 ×10⁻⁶ cm/s. In the data set with MDR1 (P-gp), the efflux ratio at 120 min, 5 μM worked out at 3.

Take `CN(c1cnc(-c2ccc(-c3cn[nH]c3)cc2O)cn1)[C@H]1CC2CC(F)(F)[C@H](C1)N2` (single isomer, unassigned) [Compound 9E2]: in the data set on SMN protein, the concentration for a half-maximal effect (EC50) was in the range of 16 to 50 nM. For the same compound, in data set [1], the “MDCK-MDR1: % Recov A-B (%)” value is reported as 71% and the “MDCK-MDR1: % Recov B-A (%)” value was 90%. Besides, in the data set with MDR1, the apparent permeability from apical to basolateral (Papp A→B) at 120 min, 5 μM is 19.9 ×10⁻⁶ cm/s and the apparent permeability from basolateral to apical (Papp B→A) at 120 min, 5 μM came out at 55.4 ×10⁻⁶ cm/s. In the data set on MDR1 (P-gp), the efflux ratio at 120 min, 5 μM stood at 3.

Compound `CN(c1cnc(-c2ccc(-c3cnn(C)c3)cc2O)cn1)[C@@H]1CC2CC(F)(F)[C@@H](C1)N2` (single isomer, unassigned) [Compound 10E1] registered an EC50 in the data set with SMN protein of 501 to 10000 nM. Also, in data set [1], the “MDCK-MDR1: % Recov A-B (%)” value was determined as 59% and the “MDCK-MDR1: % Recov B-A (%)” value is given as 86%. In the data set on MDR1, this compound displayed a Papp A→B at 120 min, 5 μM of 22.9 ×10⁻⁶ cm/s and a Papp B→A at 120 min, 5 μM of 26.1 ×10⁻⁶ cm/s. In addition, in the data set with MDR1 (P-gp), the efflux ratio at 120 min, 5 μM was 1.

For `CN(c1cnc(-c2ccc(-c3cnn(C)c3)cc2O)cn1)[C@@H]1CC2N[C@H](C1)CC2(F)F` (single isomer, unassigned) [Compound 10E2], the EC50 with SMN protein lay in the range of 101 to 500 nM. In data set [1], the “MDCK-MDR1: % Recov A-B (%)” value stood at 64% and the “MDCK-MDR1: % Recov B-A (%)” value is reported as 67%. In the data set on MDR1, this compound gave a Papp A→B at 120 min, 5 μM of 28.7 ×10⁻⁶ cm/s and a Papp B→A at 120 min, 5 μM of 23.7 ×10⁻⁶ cm/s. In the data set on MDR1 (P-gp), the efflux ratio at 120 min, 5 μM turned out to be 1.

The compound `Oc1cc(-n2ccnn2)c(F)cc1-c1cnc(N(C2CC2)[C@@H]2CC3CC[C@H](N3)[C@@H]2F)cn1` (single isomer, unassigned) [Compound 11E1] yielded a concentration giving a half-maximal response (EC50) in the data set with SMN protein of 501 to 10000 nM. Also, in data set [1], the “MDCK-MDR1: % Recov A-B (%)” value is given as 74% and the “MDCK-MDR1: % Recov B-A (%)” value came to 83%. In the data set on MDR1, this compound came in with a Papp A→B at 120 min, 5 μM of 5.25 ×10⁻⁶ cm/s and an apparent permeability from basolateral to apical (Papp B→A) at 120 min, 5 μM of 35.9 ×10⁻⁶ cm/s. In the data set with MDR1 (P-gp), the efflux ratio at 120 min, 5 μM is 7.

In the data set on SMN protein, `Oc1cc(-n2ccnn2)c(F)cc1-c1cnc(N(C2CC2)[C@H]2C[C@@H]3CCC(N3)[C@H]2F)cn1` (single isomer, unassigned) [Compound 11E2] displayed an EC50 of 501 to 10000 nM. Further, in data set [1], the “MDCK-MDR1: % Recov A-B (%)” value stood at 69% and the “MDCK-MDR1: % Recov B-A (%)” value amounted to 72%. In addition, in the data set on MDR1, the Papp A→B at 120 min, 5 μM came out at 6.21 ×10⁻⁶ cm/s and the Papp B→A at 120 min, 5 μM came out at 41.1 ×10⁻⁶ cm/s. The efflux ratio at 120 min, 5 μM in the data set with MDR1 (P-gp) was 7.

On to `CN(c1cnc(-c2cc(F)c(-c3ccn(C)c(=O)c3)cc2O)cn1)[C@@H]1CC2CCC[C@H](N2)[C@@H]1F` (single isomer, unassigned) [Compound 12E1], for which the EC50 in the data set with SMN protein fell in the range of 101 to 500 nM. Further, in data set [1], the “MDCK-MDR1: % Recov A-B (%)” value was 78% and the “MDCK-MDR1: % Recov B-A (%)” value is 83%. In the data set on MDR1, the Papp A→B at 120 min, 5 μM was 1.99 ×10⁻⁶ cm/s and the apparent permeability from basolateral to apical (Papp B→A) at 120 min, 5 μM worked out at 54.9 ×10⁻⁶ cm/s. In addition, in the data set with MDR1 (P-gp), the efflux ratio at 120 min, 5 μM was 28.

Turning to `CN(c1cnc(-c2cc(F)c(-c3ccn(C)c(=O)c3)cc2O)cn1)[C@@H]1CC2CC[C@H](N2)[C@@H]1F` (single isomer, unassigned) [Compound 13E1], the EC50 with SMN protein lay within 101 to 500 nM. The “MDCK-MDR1: % Recov A-B (%)” value in data set [1] was 454%. For the same compound, the Papp B→A at 120 min, 5 μM in the data set on MDR1 amounted to 106 ×10⁻⁶ cm/s. Also, the efflux ratio at 120 min, 5 μM in the data set with MDR1 (P-gp) is 49.

`CN(C)C(=O)c1cc(O)c(-c2cnc(N(C)[C@@H]3CC4CC[C@H](N4)[C@@H]3F)cn2)cc1F` (single isomer, unassigned) [Compound 14E1]: the EC50 with SMN protein was in the range of 501 to 10000 nM. In addition, in data set [1], the “MDCK-MDR1: % Recov A-B (%)” value came to 79% and the “MDCK-MDR1: % Recov B-A (%)” value was determined as 84%. For the same compound, in the data set with MDR1, the apical-to-basolateral permeability (Papp A→B) at 120 min, 5 μM amounted to 0.75 ×10⁻⁶ cm/s and the Papp B→A at 120 min, 5 μM stood at 39.1 ×10⁻⁶ cm/s. Besides, the efflux ratio at 120 min, 5 μM with MDR1 (P-gp) turned out to be 52.

In the data set on SMN protein, `CN(c1cnc(-c2cc(F)c(C3=CC(F)NC(F)=C3)cc2O)cn1)[C@H]1C[C@]2(C)CC[C@@](C)(N2)[C@H]1F` (single isomer, unassigned) [Compound 63E2] returned an EC50 of 501 to 10000 nM. Further, in data set [1], the “MDCK-MDR1: % Recov A-B (%)” value was 19% and the “MDCK-MDR1: % Recov B-A (%)” value was 24%. In the data set with MDR1, this compound registered an apical-to-basolateral permeability (Papp A→B) at 120 min, 5 μM of 0.58 ×10⁻⁶ cm/s and a basolateral-to-apical permeability (Papp B→A) at 120 min, 5 μM of 0.22 ×10⁻⁶ cm/s.

On to `Cc1noc(-c2ccc(-c3cnc(N(C)[C@@H]4CC5CC[C@H](N5)[C@@H]4F)cn3)c(O)c2)n1` (single isomer, unassigned) [Compound 70E1], for which the EC50 with SMN protein lay within 501 to 10000 nM.

As for `Cc1noc(-c2ccc(-c3cnc(N(C)[C@H]4C[C@@H]5CCC(N5)[C@H]4F)cn3)c(O)c2)n1` (single isomer, unassigned) [Compound 70E2], the EC50 with SMN protein was 101 to 500 nM.

For the compound `CN(c1cnc(-c2ccc3ccncc3c2O)cn1)[C@H]1C[C@@H]2CCC(N2)[C@H]1F` (single isomer, unassigned) [Compound 71E2], the EC50 in the data set with SMN protein lay in the range of 16 to 50 nM.
